# Data taken from patent US4853221A, “Method for treating non-small cell lung cancer, head and neck cancers and breast cancer” (Warner-Lambert Company, priority 1987, dated 1989).
# How the values were obtained:
# L1210 = assay: Antitumor activity against L1210 leukemia in mice; assay type: in vivo, mouse; conditions: for Life Span % ILS / Life Span % T/C: ip daily, Days 1-9
# Protocol: The growth inhibition properties of 5-methyl-6-[[(3,4,5-trimethoxyphenyl)amino]methyl]-2,4-quinazolinediamine (trimetrexate) against several transplanted murine tumors were evaluated employing the antitumor screening program of the Drug Evaluation Branch of the National Cancer Institute. The protocols for these tests is described in Cancer Chemotherapy Reports, 3: 1-103 (1972). The dosing schedules are results from these tests appear in Table IV.
# In the L1210, P388, and B-16 melanoma models, results are expressed as a percentage of median control survival time. Percentage of increase in survival time and/or cures (30 day survivors) were the parameters used to measure the effectiveness of the agents. An initial median survival value for treated over control percentage (% T/C) equal to or greater than 125% was considered indicative of activity. For confirmatory activity, two multidose assays must show % T/C values equal to or greater than 150%.
# (§1) Percent increase in median life span (% ILS) values appearing in the tables were calculated from the formula; 100×(median life span in days of treated mice minus median life span in days of untreated mice) divided by median life span in days of untreated control mice. That is, % ILS=[100×(T-C)]/C. % T/C and %ILS are directly interconvertible by the formula % ILS=% T/C -100.
# (§2) L1210 Leukemic Cells (10^5 /mouse) and P388 leukemic cells (10^6 /mouse)were in the ascites form and were transferred to BD2F1 or CD2F1 mice by intraperitoneal (ip) injection of 0.1 ml of cells taken from animals bearing 6- to 7-day old tumors. Leukemic cells were injected ip one day prior to the start of treatment.
# In all of the mouse tumor studies described above, routine controls consisted of matching ten normal mice (with no tumors) to each tumor-bearing treatment group and injecting them with the same drug at the same dosages, schedules, days of administration, and drug route as the tumor-bearing mice. In this way, drug-induced toxicity (lethality and weight loss) could be clearly separated from the effects of the drug on the tumors.
# [1] = system: murine tumor cell lines (L5178Y, Sarcoma-180, Walker-256); assay: Comparison with methotrexate against murine tumor cell lines in vitro; assay type: cell-based; conditions: all of the murine tumor cell lines tested
# Protocol: (§3) Two leukemia cell lines (L1210 and L5178Y) and two solid tumor cell lines (Sarcoma 180 and Walker 256) were used in these studies.
# (§4) Logarithmically growing L1210 cells (approximately 3×10^5 cells/ml) were diluted with Fischer's medium (containing 10% horse serum) to an approximate concentration of 5×10^4 cells/ml. Cells were planted in duplicate into 15 ml culture tubes containing either no drug or various amounts of drug, and incubated for 48 hours at 37° C. before being counted.
# (§5) Trimetrexate was also evaluated in a similar manner side-by-side with methotrexate for its effect on the growth of three additional murine cell lines (L5178Y, Sarcoma-180, and Walkler-256) and three human cell lines (acute myelogenous leukemia K-562, T-cell 8402, and B-cell 8392), propagated in vitro.
# salivary gland cancer = assay: Phase I clinical trials, salivary gland cancer; assay type: in vivo, human; conditions: single agent
# Protocol: Several Phase I clinical trials employing trimetrexate in human patients were carried out. In one study, 36 patients were treated with trimetrexate as a single agent at daily doses of 0.5 mg/m^2 /day to 12 mg/m^2 /day administered intravenously for five days.
# In additional Phase I clinical studies, patients were administered trimetrexate with single intravenous doses ranging between 5 and 450 mg/m^2 and with weekly doses of slightly greater than 100 mg/m^2.
# P388 murine leukemia = assay: Schedule dependence against P388 murine leukemia; assay type: in vivo, mouse
# Protocol: In the L1210, P388, and B-16 melanoma models, results are expressed as a percentage of median control survival time. Percentage of increase in survival time and/or cures (30 day survivors) were the parameters used to measure the effectiveness of the agents.
# as §1, §2
# The dose schedule dependence of trimetrexate was tested against transplanted P388 leukemia using the protocol outlined above.
# Walker-256 = assay: Inhibition of Walker-256 cell growth in vitro; assay type: cell-based; conditions: Mus musculus, 48 h; Murine Walker-256; read-out: ED50 (the source's name)
# Protocol: as §3, §4, §5
# Melanoma = assay: Human tumor cloning system, melanoma; assay type: cell-based; conditions: one hour, 5 specimens
# Text: The activity of trimetrexate was compared with that of methotrexate in tests with a human tumor cloning system (Latham, et al., Proc. Am. Assoc. Cancer Res., 24: 278 (1983)). The data from these tests appear in Table III were the activities are expressed as the numbers of tumors with 50% or greater reduction in tumor colony forming units after one hour exposure to the drug.
# Colon 38 = assay: Antitumor activity against colon adenocarcinoma 38 in mice; assay type: in vivo, mouse
# [2] = optimal dose 20 mg/kg (dose range 80-5)
# [3] = optimal dose 80 mg/kg (dose range 80-5)
# [4] = 13 mg/kg, every 3 hours, daily, Days 1, 5, and 9
# [5] = 20 mg/kg, every 3 hours, daily, Days 1, 5, and 9
# [6] = 30 mg/kg, every 3 hours, daily, Days 1, 5, and 9
# [7] = 45 mg/kg, every 3 hours, daily, Days 1, 5, and 9
compound,measurement,setting,value
"COc1cc(NCc2ccc3nc(N)nc(N)c3c2C)cc(OC)c1OC [Trimetrexate, 5-methyl-6-[[(3,4,5-trimethoxyphenyl)amino]methyl]-2,4-quinazolinediamine]",antitumor activity,"L1210; mouse, in vivo",good activity
same,Life Span % ILS,L1210; [2],72%
same,Life Span % T/C,L1210; [2],172%
same,Life Span % ILS,L1210; [3],96%
same,Life Span % T/C,L1210; [3],196%
same,potency relative to methotrexate,[1],more potent than methotrexate
same,patients with favorable responses,salivary gland cancer,two
same,% T/C,P388 murine leukemia; [4],185%
same,Weight Change,P388 murine leukemia; [4],1.0 Grams
same,% T/C,P388 murine leukemia; [5],194%
same,Weight Change,P388 murine leukemia; [5],-0.2 Grams
same,% T/C,"P388 murine leukemia; 22 mg/kg, Days 1 and 9",164%
same,Weight Change,"P388 murine leukemia; 22 mg/kg, Days 1 and 9",1.8 Grams
same,% T/C,P388 murine leukemia; [6],203%
same,Weight Change,P388 murine leukemia; [6],0.6 Grams
same,% T/C,"P388 murine leukemia; 33 mg/kg, Days 1 and 9",169%
same,Weight Change,"P388 murine leukemia; 33 mg/kg, Days 1 and 9",0.8 Grams
same,% T/C,P388 murine leukemia; [7],212%
same,Weight Change,P388 murine leukemia; [7],-1.7 Grams
same,% T/C,"P388 murine leukemia; 50 mg/kg, Days 1 and 9",166%
same,Weight Change,"P388 murine leukemia; 50 mg/kg, Days 1 and 9",0.3 Grams
same,% T/C,"P388 murine leukemia; 53 mg/kg, Day 1 only",100%
same,% T/C,"P388 murine leukemia; 53 mg/kg, Days 1, 5, and 9",116%
same,Weight Change,"P388 murine leukemia; 53 mg/kg, Days 1, 5, and 9",2.9 Grams
same,% T/C,"P388 murine leukemia; 75 mg/kg, Days 1 and 9",181%
same,Weight Change,"P388 murine leukemia; 75 mg/kg, Days 1 and 9",-2.6 Grams
same,% T/C,"P388 murine leukemia; 80 mg/kg, Day 1 only",104%
same,% T/C,"P388 murine leukemia; 80 mg/kg, Days 1, 5, and 9",119%
same,Weight Change,"P388 murine leukemia; 80 mg/kg, Days 1, 5, and 9",1.3 Grams
same,% T/C,"P388 murine leukemia; 120 mg/kg, Day 1 only",113%
same,% T/C,"P388 murine leukemia; 120 mg/kg, Days 1, 5, and 9",154%
same,Weight Change,"P388 murine leukemia; 120 mg/kg, Days 1, 5, and 9",-2.5 Grams
same,% T/C,"P388 murine leukemia; 180 mg/kg, Day 1 only",12%
same,% T/C,"P388 murine leukemia; 180 mg/kg, Days 1, 5, and 9",9%
same,optimal dose regimen,"P388 murine leukemia; every three hours on Days 1, 5, and 9, minimal weight loss and maximum life span response",about 30 mg/kg/injection
same,IC50,Walker-256,5 nM
same,Number of Tumors with 50% or Greater Decrease in Tumor Colony Forming Units,Melanoma; trimetrexate 0.1 μg/ml,2
same,Number of Tumors with 50% or Greater Decrease in Tumor Colony Forming Units,Melanoma; trimetrexate 1.0 μg/ml,3
same,antitumor activity,"Colon 38; mouse, in vivo",good activity
same,Tumor Weight Inhibition % TWI,"Colon 38; optimal dose 60 mg/kg (dose range 60-1.88), Sc every 7 days, Days 2-9",85%
